Reference: patent US9468209B2, “Method for eradicating weeds with derivatives of 3-acetyl-5-sec-butyl-4-hydroxy-3-pyrrolin-2-one” (priority 2012, dated 2016)

Legend:
Type in all cases: in vivo
Humulus scandens = test: Leaf piece damage test; set-up: key: 4: The leaf completely dead; 3: Two third of the leaf withered; 2: One half of the leaf withered; 1: Only edge of the leaf withered; 0: Not damage at all; settings: 50 μg/mL, 4 days
Procedure, shortened: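 Read-out: damage index = Σ(damage level × number of plants) × 100/4/number of plants per treatment, scored 4 days post-treatment. Solutions were 50 μg/mL in water containing a small amount of methanol, applied three times to 5 mm second-leaf pieces (5 per treatment).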

Crofton weed [1] = test: Spray on leaves and stems of three-leaf-stage Crofton weed seedlings grown in pots in a greenhouse; set-up: key: 4: Plant completely dead; 3: Two thirds of the plant stems and leaves dried out; 2: Half of the plant stems and leaves dried out; 1: One third of the plant stems and leaves dried out; 0: No damage at all; settings: 50 μg/mL spray, assessed two days later
Protocol: Compounds 1, 2, 3, and 40 were separately dissolved in a small amount of methanol. The solutions were then diluted with distilled water to a concentration of 50 μg/mL. A mixture of methanol and water in the same ratio as the sample solution was also prepared and used as control in the experiment. The solutions were sprayed on leaves and stems of three-leaf-stage Crofton weed seedlings. All the plants were grown in pot in a greenhouse. The leaves were properly wet by the solutions for consistency and the treatment was repeated 3 times. The measurement of the plant damage was calculated by the formula: Damage Index=Σ(damage level×number of plants)×100/4/number of plants in each treatment.

Crofton weed [2] = test: Needle puncture test on Crofton weed with washes recovered from compound-treated soil; settings: after soil treatment (3 hours)
Protocol: Compounds 1, 2, 3, and 40 were dissolved in small amount of methanol and diluted with distilled water to concentration of 50 μg/mL. The solution was sprayed to the soil sample until the soil was wet but not overflows. After standing at room temperature for 3 hours, the soil sample was washed with water and methanol. The wash solution was collected and concentrated. Such process was repeated three times. The concentrated solutions were used for herbicidal activity test using the method of needle puncture on Crofton weed. Methanol water solution and pure water were used as control. The experiment for every sample was repeated six times. The spot diameters were measured with vernier caliper after the plant was kept under natural light at 25° C. for 24 hours (Table 11).

CCCCC1NC(=O)C(C(C)=O)=C1O (stereo not shown) [Compound 14]
Damage level (Humulus scandens): 2

CCCCCC1NC(=O)C(C(C)=O)=C1O (stereo not shown) [Compound 15]
Damage level (Humulus scandens): 2

CCCCCCC1NC(=O)C(C(C)=O)=C1O (stereo not shown) [Compound 16]
Damage level (Humulus scandens): 3

CCCC(Cl)C1NC(=O)C(C(C)=O)=C1O (stereo not shown) [Compound 40]
Damage level (Crofton weed [1]): 4 | Average diameter of the spot after 24 h, H2O wash (Crofton weed [2]; H2O wash): 0.336 ± 0.050 mm | Average diameter of the spot after 24 h, Methanol wash (Crofton weed [2]; Methanol wash): 0.416 ± 0.024 mm | Damage level (Humulus scandens): 3

CCC(C)C1NC(=O)C(C(=O)CCF)=C1O (stereo not shown) [Compound 44]
Damage level (Humulus scandens): 2

CCC(C)C1NC(=O)C(C(=O)CCc2cc(Cl)cc(Cl)c2)=C1O (stereo not shown) [Compound 48]
Damage level (Humulus scandens): 3

CCCC(C#N)C1NC(=O)C(=C(C)O)C1=O (stereo not shown) [Compound 53]
Damage level (Humulus scandens): 2
